The test relates to MCF7. Briefly: Ratio of colchicine IC50 to compound IC50 for human MCF7 cells by SRB assay. It counts as functional.
With `COc1ccc2c(c1)Oc1ncn(N)c(=N)c1C2c1ccc(Cl)cc1` (mixture of isomers), the “Ratio IC50” value was determined as 1.5.

Regarding `CCOc1ccc2c(c1)Oc1ncn3nc(-c4ccc(OC)cc4)nc3c1C2c1ccc(Cl)cc1` (racemic), the “Ratio IC50” value is on record as 1.5.

Take `COc1ccc2c(c1)Oc1ncn(C)c(=N)c1C2c1ccc(Cl)cc1` (racemic): the “Ratio IC50” value was determined as 2.

For the compound `CCOC(=O)c1nc2c3c(ncn2n1)Oc1cc(OCC)ccc1C3c1ccc(Cl)cc1` (racemic), the “Ratio IC50” value turned out to be 2.

`COc1ccc(-c2nc3c4c(ncn3n2)Oc2cc(OC)ccc2C4c2ccc(Cl)cc2)cc1` (racemic): the “Ratio IC50” value was found to be 1.5.

Values taken from ChEMBL document CHEMBL2311259, “Synthesis of novel chromene derivatives of expected antitumor activity” (Eur J Med Chem, 2013).
